Here are results for one compound from publication PMC9068870, “Modulation of Morphine Analgesia, Antinociceptive Tolerance, and Mu-Opioid Receptor Binding by the Cannabinoid CB2 Receptor Agonist O-1966” (Frontiers in Pharmacology, 2022).

Structures are written as SMILES.

The Ki is a measure of affinity in units of concentration, obtained from inhibition or displacement.

The target in experiment [1] is T1, rat mu-opioid receptor (rMOR) (Rattus norvegicus, UniProt P33535).
T1 construct: gene Oprm1; stably expressed in CHO cells (CHO-rMOR); cell membranes
The experiment is described as follows: competition with [3H]DAMGO, filtration, CHO-rMOR membranes. It is filed as binding.

Experiment [2] has as its target T1, rat mu-opioid receptor (rMOR). Put plainly: […]GTPγS binding, CHO-rMOR membranes. It is filed as biochemical. The note with it: O-1966 10 min before 0.5 µM morphine; 10 µM GDP, 50 mM HEPES, 100 mM NaCl, 5 mM MgCl2, 30 °C, 1 h; negative allosteric mode suggested only. Background: GTPγS resists hydrolysis and so accumulates on activated G proteins.

T1 sequence (P33535 whole entry): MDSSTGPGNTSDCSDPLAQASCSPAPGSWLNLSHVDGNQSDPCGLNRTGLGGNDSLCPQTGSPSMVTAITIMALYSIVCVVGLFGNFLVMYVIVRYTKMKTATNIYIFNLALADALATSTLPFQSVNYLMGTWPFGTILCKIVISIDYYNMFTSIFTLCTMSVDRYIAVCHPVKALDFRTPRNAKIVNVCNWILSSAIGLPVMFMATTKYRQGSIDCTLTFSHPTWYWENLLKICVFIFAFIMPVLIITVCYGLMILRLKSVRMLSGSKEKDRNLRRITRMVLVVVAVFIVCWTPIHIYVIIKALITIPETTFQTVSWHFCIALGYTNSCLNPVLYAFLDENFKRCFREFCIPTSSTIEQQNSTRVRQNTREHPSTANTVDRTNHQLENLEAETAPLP

`CCCCCCC(C)(C)c1cc(OC)c(C2(O)CCCC(C)C2)c(OC)c1` (centres unmarked) [O-1966] displayed a Ki in experiment [1] of 3.04 µM. Also, the “% reduction of morphine response at 10 μM” value in experiment [2] was 20%.
